Assay [1] concerns Escherialla coli ATCC 8739. Briefly: Anti-bacterial assay against aerobic bacteria (serial dilution in nutrient broth). In kind it is cell-based. As to conditions: no growth of organism; aerobic incubation 20-24 hr. at 37° C.; tested at 100, 10, 1, 0.1 mcgm per ml; read-out: active (minimum concentration at which a compound is active). As for the experimental part:
Evidence of the anti-bacterial utility of the instant compounds vis-a-vis aerobic bacteria is provided by the following standardized test. Nutrient broth (manufactured by Baltimore Biological Laboratories) is prepared by recommended by the manufacturer, sterilized, and inoculated with Escherialla coli ATCC 8739 q.s. one million cells per ml, determined spectrophotometrically. Meanwhile, compound is heated in sterile distilled water at a concentration of 1000 mcgm per ml for 20 minutes at 80° C. This compound preparation is serially diluted and mixed with sufficient inoculated medium to afford concentrations of 100, 10, 1, and 0.1 mcgm of compound per ml. The mixtures thus obtained are incubated aerobically for 20-24 hr. at 37° C. and then examined grossly for growth of the organism. Controls are provided by concurrent incubations identical with the above except that (1) reference standards (4.3, 0.43, 0.043, and 0.0043 mcgm per ml of streptomycin sulfate and 6667, 667, 67, and 7 units of potassium penicillin G) are substituted for compound and (2) neither compound nor reference standard is present. Compounds are considered active if, at the maximum concentrations tested, no growth of organism is observed and no aberrancy is apparent in respect of the controls. Potency is expressed as the minimum concentration at which a compound is active.

Assay [2] has as its target T1, dopamine receptors (3H-Haloperidol sites) (Bos taurus, UniProt P20288). As to conditions: for antagonist ratios: in words, compared with known neuroleptics.
Method: (§1) The procedure for this assay is as follows:
(§2) Calf caudate nuclei were dissected from freshly obtained brains and stored frozen at -76° C.
(§3) Test compounds were added as 20 μl aliquots from stock solutions prepared in absolute ethanol or 0.1% ascorbic acid.
(§4) Immediately following all incubations, proteins were recovered on Whatman GF/B glass fiber filters under reduced pressure. Trapped membranes were solubilized off the filters using 1 ml NCS tissue solubilizer (Amersham/Searle Corp.) at 50° C. for 1 hour. Then, pH was adjusted by adding 0.1 ml glacial acetic acid, 10 ml PCS (Amersham/Searle) added and samples analyzed for membrane-bound radioactivity using a Mark II liquid scintillation counter (Searle Analytical, Inc.).
(§5) IC50 values were determined from log-probit plots using 4-6 concentrations of each compound.
(§6) There as two indications from the assay data as to whether a compound is a probable neuroleptic. Firstly, it must be a dopamine antagonist. […] In other words, it must have a high ^3 H-DA/^3 H-HALO, IC50 ratio.
Assay [3] addresses T1, dopamine receptors (3H-Haloperidol sites). The assay can be described thus: biochemical.
Method: as §1, §2, §3, §4, §5, §6
The target of assay [4] is dopamine receptors (3H-dopamine sites). Briefly: Receptor Binding Assay: stereospecific binding of 3H-dopamine to calf caudate membranes. As to conditions: displacement of 5nM 3H-dopamine; calf caudate membrane homogenate; 37° C., 15 minutes.
Method: as §1, §2, §3, §4, §5, §6

These results are taken from US4137414A, “5-Substituted-2-phenylbenzo[b]thiophene-3-alkylamines and related compounds” (G. D. Searle & Co., priority 1977, dated 1979).

≈ marks a conversion by molar mass, not a printed value. Counter-ions that a name gives are not always drawn. Like-named read-outs stand apart in the source and are kept apart here.

Broadly, the IC50 is the concentration that gives 50% inhibition.

T1 sequence (P20288 whole entry): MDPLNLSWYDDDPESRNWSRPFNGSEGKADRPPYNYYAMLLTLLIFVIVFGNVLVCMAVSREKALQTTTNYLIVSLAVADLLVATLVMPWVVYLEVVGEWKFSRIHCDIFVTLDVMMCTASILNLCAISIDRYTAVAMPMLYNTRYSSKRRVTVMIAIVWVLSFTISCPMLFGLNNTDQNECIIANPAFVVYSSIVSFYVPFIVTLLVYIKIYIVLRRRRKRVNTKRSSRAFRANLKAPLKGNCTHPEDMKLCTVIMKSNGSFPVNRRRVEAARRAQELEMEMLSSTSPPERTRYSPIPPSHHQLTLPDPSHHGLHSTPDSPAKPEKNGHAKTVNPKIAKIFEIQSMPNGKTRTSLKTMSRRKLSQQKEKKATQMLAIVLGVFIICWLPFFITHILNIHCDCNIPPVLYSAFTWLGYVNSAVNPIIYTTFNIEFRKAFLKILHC

Take `CN1CCN(CCc2c(-c3ccccc3)sc3ccc(Cl)cc23)CC1` [1-[3-(5-chloro-2-phenylbenzo[b]thiophen-3-yl)ethyl]-4-methylpiperazine dihydrochoride]: in assay [1], the MIC was determined as 10 µg/mL (≈ 27 µM).

Turning to `CN1CCN(CCCc2c(-c3ccccc3)sc3ccc(Cl)cc23)CC1.Cl.Cl` [1-[3-(5-chloro-2-phenylbenzo[b]thiophen-3-yl)propyl]-4-methylpiperazine dihydrochloride], the MIC in assay [1] amounted to 100 µg/mL.

Take `OCCN1CCN(Cc2c(-c3ccccc3)sc3ccc(Cl)cc23)CC1` [1-[(5-chloro-2-phenylbenzo[b]thiophen-3-yl)methyl]-4-ethanol piperazine dihydrochloride]: the MIC in assay [1] came out at 100 µg/mL.

Consider `Cl.Clc1ccc2sc(-c3ccccc3)c(CCN3CCCC3)c2c1` [1[2-(5-chloro-2-phenylbenzo[b]thiophen-3-yl)ethyl]pyrrolidine hydrochloride], for which the “Ratio (^3 H-DA/^3 H-HALO IC50 ratio)” value in assay [2] (IC50 3H-dopamine / IC50 3H-Haloperidol, high ratio indicates dopamine antagonist) worked out at 74. Besides, in assay [2], the antagonist ratios result is “comparable to clozapine and chloropromazine”. The IC50 in assay [3] came to 650 nM; in assay [4] it was 48 µM.

Consider `CN(C)CCc1c(-c2ccccc2)sc2ccccc12` [2-phenylbenzo[b]thiophene-3-N,N-dimethylethanamine hydrochloride], for which, in assay [2], the “Ratio (^3 H-DA/^3 H-HALO IC50 ratio)” value was determined as 21; the antagonist ratios result was “comparable to clozapine and chloropromazine”. For the same compound, in assay [3], the midpoint of inhibition, the IC50, lay at 620 nM. In assay [4], the IC50 is 12 µM.

For the compound `CCN(CC)CCc1c(-c2ccccc2)sc2ccc(Cl)cc12` [5-chloro-2-phenylbenzo[b]thiophene-3-N,N-diethylethanamine hydrochloride], the “Ratio (^3 H-DA/^3 H-HALO IC50 ratio)” value in assay [2] came out at 50. Also, in assay [2], the antagonist ratios entry is “comparable to clozapine and chloropromazine”. The figures for the IC50 in assay [3] and in assay [4] were 120 nM and 6 µM, respectively.

For the compound `CN(C)CCc1c(-c2ccccc2)sc2ccc(Cl)cc12` [5-chloro-2-phenylbenzo[b]thiophene-3-N,N-dimethylethanamine hydrochloride], in assay [1], the MIC stood at 100 µg/mL. Besides, in assay [2], the “Ratio (^3 H-DA/^3 H-HALO IC50 ratio)” value was 31; the antagonist ratios entry was “comparable to clozapine and chloropromazine”. The IC50 in assay [3] was found to be 650 nM. This compound also registered an IC50 in assay [4] of 20 µM.

Consider `CN(C)CCCc1c(-c2ccccc2)sc2ccc(Cl)cc12` [5-chloro-2-phenylbenzo[b]thiophene-3-N,N-dimethylpropanamine hydrochloride], for which the “Ratio (^3 H-DA/^3 H-HALO IC50 ratio)” value in assay [2] is on record as 137. Moreover, in assay [2], the antagonist ratios entry was “comparable to clozapine and chloropromazine”. Moreover, the IC50 in assay [3] was determined as 350 nM; in assay [4], 48 µM.

`Cl.NCCc1c(-c2ccccc2)sc2ccc(Cl)cc12` [5-chloro-2-phenylbenzo[b]thiophene-3-ethanamine hydrochloride]: the MIC in assay [1] was determined as 10 µg/mL.
